Measurements from patent publication US6451852B2, “Phenylacetonitrilealkylaminoalkyl-ortho-substituted aryl compounds as immunosuppressives” (G. D. Searle & Co., priority 1989, dated 2002).
Where a name gives a salt, the structure may show the parent alone.

Legend:
[1] = tested on: excised aortic segment (Ca++ induced vascular smooth muscle contraction); assay: Assay F: Calcium Antagonist Effects; conditions: K+ (100 mM) depolarized aortic segment, 1 hr incubation with test compound at 10^-6M
Protocol: Assay F: Calcium Antagonist Effects
An excised aortic segment was mounted in a tissue bath containing modified Krebs solution. After depolarization of the tissue with K^+ (100 mM), Ca^++, in cumulative concentrations of 10^−3M, 3.2×10^−3M and 10^−2M, was injected into the bath to produce vascular smooth muscle contraction. The developed tension (g) was measured and control dose-response values are obtained. After 1 hr incubation with a test compound at 10^−6M concentration, the same doses of Ca^++ are repeated. The log dose-response curves of control and after treatment were analyzed by linear regression.

[2] = tested on: PHA stimulated human donor peripheral blood mononuclear cells (PMNC); assay: Assay B: Suppression of Human Mitogen Stimulation; type: cell-based; conditions: inhibition of PHA stimulated proliferation of human PMNC, 96 hrs, 3H-thymidine
Protocol: Assay B: Suppression of Human Mitogen Stimulation Assay
Normal human donor peripheral blood mononuclear cells (PMNC) were isolated by density centrifugation using Ficoll-Paque(Pharacia LKB, Uppsala Sweden, 350 RCF 45 minutes). Cells were washed and incubated at 37° C. in 95%air/5% CO2 atmosphere in 96 well microtiter plates (2×10^5 cells/well) for 96hrs with RPMI 1640 medium containing 5% fetal bovine serum and 2-mercaptoethanol ([…]), Phytohemagglutinin (Difco, Detroit, MI 10 μg/ml) in the presence or absence of test compounds. Inhibition of PHA stimulated proliferation was measured by reduced incorporation of ^3H-thymidine (0.5 μCi/well, added during the last 24 hours of the assay). When possible, the IC50 values for active immunosuppressant compounds were calculated by four parameter logistic regression analysis of the results [Delean et al, DE ].

[3] = tested on: human peripheral blood mononuclear cells (PMNC) cocultured with mitomycin-C inactivated Raji stimulator cell line; assay: Assay C: One-Way Mixed Lymphocyte Reaction (Human); type: cell-based; conditions: one-way MLR, human PMNC vs Raji, 120 hours, 3H-thymidine
Text: Assay C: One-Way Mixed Lymphocyte Reaction (Human)
The mixed lymphocyte reaction (MLR) is an assay that measures T-cell blast cell transformation and mitosis which occurs when lymphocytes from different major and minor histocompatibility complex (MHC) haplotypes are cocultured. This response is considered a “one-way MLR” when stimulator cells are made unresponsive by inhibition of DNA synthesis (treatment with mitomycin-C or gamma-irradiation) prior to coculture with responder cells. This assay can be used as an indicator of the cellular immunomodulation mechanisms involved in transplant rejection. In this assay, human peripheral blood mononuclear cells(PMNC) were used as the responder cell population and were isolated from normal donor blood as follows: Blood samples were collected in LeucoPREP™ tubes (Becton Dickinson, Lincoln Park, N.J.) and the mononuclear cell preparation was obtained by following the manufacturers procedures. Isolated mononuclear cells were co-incubated at 6×10^4 cells/well with a stimulator cell line at 2×10^4 cells/well in RPMI 1640 medium containing 5% fetal bovine serum and 2-mercaptoethanol (40 μM). The stimulator cell line, Raji, which was derived from a human Burkitt lymphoma (American Type Culture Collection, Rockville Md.) was previously inactivated by mitomycin-C treatment (Sigma, St. Louis Mo., 25 μg/ml, 370 for 30 minutes). After repeated washings of mitomycin-C from the stimulator cell line, cocultures were incubated in 96 well microtiter plates at 37° C., in 95% air/5% CO2 atmosphere for 120 hours in the presence or absence of test compounds (0.1-25 μM). Inhibition of proliferation was measured by reduced incorporation of ^3H-thymidine (0.5 μCi/well, added during the last 24 hours of the assay). The IC50 values for the immunosuppressant compounds were calculated by four parameter logistic regression analysis of the results [Delean et al, Id.]

[4] = tested on: ConA-stimulated spleen cells from female Balb/c mice; assay: Assay A: Suppression of Mitogen-Stimulated Proliferation (Murine); type: cell-based, mouse; conditions: inhibition of ConA-stimulated proliferation of murine spleen cells, 5 days, MTT
Text: Assay A: Suppression of Mitogen-Stimulated Proliferation (Murine)
It is known that lymphocyte activation can be polyclonally stimulated by plant lectins and other mitogens that induce blast transformation and mitosis. Certain mitogens like Concanavalin A (ConA), preferentially activate T-lymphocytes. Exposure to ConA results in polyclonal activation of T-cells and can be used as an in vitro index for general immunomodulation of pan T-cell activity. In this assay spleen cells harvested from female Balb/c mice were incubated at 37° C., in 95% air/5% CO2 atmosphere in 96 well microtiter plates (10^5 cells/well) for 5 days with Iscove's modified Dulbecco's medium [25 mM HEPES 2 mM L-glutamine, 5% fetal bovine serum and 2-mercaptoethanol (40 μM)] (100 μl/well), concanavalin A (ConA) alone (Sigma, St. Louis, Mo.; 1.0 μg/ml) or ConA in the presence of test compounds (0.001-25 μM). Inhibition of ConA-stimulated proliferation was measured by calorimetric indicator of growth and proliferation, MTT (3-(4,5-dimethylthiazol-2-yl)-2 diphenyl tetrazolium bromide; (100 μl/well, 1 mg/ml) Sigma) [Mosmann, T., J. of Immunological Methods, 65, 55-63, […]]. After four hours, plates were centrifuged (1200 rpm) media supernatants aspirated and dye loaded cells were solubilized in isopropanol (150 μl/well). The absorbance was measured on an ELISA plate reader with a test wavelength of 570 nm and a reference of 630 nm. The IC50 values for active immunosuppressant compounds were calculated by four parameter logistic regression analysis of the results [Delean et al, Am. J. Physiol., 2, 397 (1978)].

[5] = tested on: anesthetized spontaneously hypertensive rat; assay: Assay H: Blood Pressure Reducing Effects; type: in vivo; conditions: intragastrically at 10^-3M, readings 1, 2, 3 and 4 hours after administration
Protocol: Assay H: Blood Pressure Reducing Effects
Systemic blood pressure effects were assessed in vivo in an anesthetized spontaneously hypertensive rat. The test compound was administered intragastrically at 10^−[…]. Initial mean arterial blood pressure (MAP) was measured directly via a previously implanted arterial catheter immediately before administration of the compound. Blood pressure readings were made 1, 2, 3, and 4 hours after administration of the test compound.

Human mononuclear cells = assay: Assay D: Calcium Flux Assay (human mononuclear cells); type: cell-based; conditions: at 2×, 5× and 10× the IC50 values of Assay A
Text: Assay D: Calcium Flux Assay
One of the earliest requirements of lymphocyte activation involves the rapid mobilization of intracellular calcium and the sustained influx of extracellular calcium. These cellular responses to lymphocyte activators can be measured by calcium-binding fluorescent dyes such as Indo-1 [P. S. Rabinovitch, et al J. Immunol, 137, 952 (1986)]. The rapid and sustained changes in intracellular calcium can be used to discriminate classes of immunomodulatory compounds which alter early events in lymphocyte activation. Human mononuclear cells or the human Jurkat T-cell line (ATCC, Rockville Md.) were loaded with the calcium-sensitive dye, Indo-1 (5 μM), washed and incubated for 2-5 minutes in the presence or absence of test compounds. Calcium flux was initiated in lymphocytes by the binding of crosslinked antibody to the T cell receptor(αCD3 at 250 ng/ml followed by goat-anti-mouse IgG) or the lectin Phytohemagglutinin (PHA, 100 ug/ml). Jurkat cell activation was initiated by the addition of purified antibody to the T cell receptor (αCD3, 250 ng/ml). Subsequent changes in the concentration if intracellular calcium was monitored over time (6 min) by flow cytometry (Epics 753, Coulter Electronics, Hialeah Fla.) to determine modulation of the initial calcium-mediated activation of the cells [P. S. Rabinovitch, et al, E]. […]

adult male SHR = assay: Assay G: Calcium Channel Blocker Effects (vascular resistance, microspheres); type: in vivo, rat; conditions: I.V. bolus of 1.0 mg/kg, Control (DMSO) 240
Protocol: Assay G: Calcium Channel Blocker Effects
Under ether anesthesia, the jugular vein, femoral artery and left ventricle of adult male SHR were cannulated. After a 3-5 hour recovery period, animals ere treated with either test compound or placebo. Ten minutes was allowed for steady state conditions to be reached. Arterial pressure was then monitored via the femoral cannula. Immediately after this measurement, the reference blood sample was taken and radioactively-labeled microspheres were injected into the left ventricle. Rats were then sacrificed; organs were removed, weighed and counted. Cardiac output was computed. Percent cardiac output distribution per gram tissue, flow per gram tissue, and resistance times gram tissue were calculated fro the following organs: brain, heart, kidneys, splanchnic organs (liver plus pancreas, spleen and G. I. tract), skeletal muscle and skill. The tested compound was administered as an I.V. bolus of 1.0 mg/kg. Differences in mean values between treatment and control groups were analyzed by a one-way one variable analysis and least significant difference test.

| SMILES | IC50 ([2]; Homo sapiens, PBMC) [µM] | IC50 [3] [µM] | IC50 ([4]; Mus musculus, 120 h) [µM] | other results |
| --- | --- | --- | --- | --- |
| COC(=O)c1cc(OC)c(OC)cc1CCN(C)CCCC(C#N)(c1ccc(OC)c(OC)c1)C(C)C (stereo not shown) [Example 1, methyl 2-[2-[[4-cyano-4-(3,4-dimethoxyphenyl)-5-methylhexyl]methylamino]ethyl]-4,5-dimethoxybenzoate] |  |  |  | pA2 [1]: 6.81 |
| COC(=O)c1cc(OC)c(OC)cc1CCN(C)CCCC(C#N)(c1ccc(OC)c(OC)c1)C(C)C (stereo not shown) [Example 2, methyl 2-[2-[[4-cyano-4-(3,4-dimethoxyphenyl)-5-methylhexyl]methylamino]ethyl]-4,5-dimethoxybenzoate, 2-hydroxy-1,2,3-propanetricarboxylic acid salt] | 5.4 | 4.3 | 7.1 |  |
| COC(=O)c1cc(OC)c(OC)cc1CCN(C)CCCC(C#N)(c1ccc(OC)c(OC)c1)C(C)C (stereo not shown) [Example 3, methyl 2-[2-[[4-cyano-4-(3,4-dimethoxyphenyl)-5-methylhexyl]methylamino]ethyl]-4,5-dimethoxybenzoate, 2,3-dihydroxybutanedioic acid salt] |  |  |  | IC50 [2]: 5.3 µM; IC50 [4]: 8.7 µM |
| COc1ccc(C(C#N)(CCCN(C)CCc2cc(OC)c(OC)cc2C(=O)NC(C)(C)C)C(C)C)cc1OC (stereo not shown) [Example 4, 2-[2-[[4-cyano-4-(3,4-dimethoxyphenyl)-5-methylhexyl]methylamino]ethyl]-N-(1,1-dimethylethyl)-4,5-dimethoxybenzamide, 2-hydroxy-1,2,3-propanetricarboxylic acid salt] | 9.9 | 8.9 | 13.3 | Decrease in MAP [5]: 18 mm Hg; pA2 [1]: 6.56 |
| CCNC(=O)c1cc(OC)c(OC)cc1CCN(C)CCCC(C#N)(c1ccc(OC)c(OC)c1)C(C)C (stereo not shown) [Example 5, 2-[2-[[4-cyano-4-(3,4-dimethoxyphenyl)-5-methylhexyl]methylamino]ethyl]-N-ethyl-4,5-dimethoxybenzamide, 2,3-dihydroxybutanedioic acid salt] | > 25 | 20.2 | > 25 | Decrease in MAP [5]: 20 mm Hg; inhibition of calcium flux (Human mononuclear cells): inhibited calcium flux in a dose dependent manner |
| COc1ccc(C(C#N)(CCCN(C)CCc2cc(OC)c(OC)cc2C)C(C)C)cc1OC (stereo not drawn) [Example 6, α-[3-[[2-(4,5-dimethoxy-2-methylphenyl)ethyl]methylamino]propyl]-3,4-dimethoxy-α-(1-methylethyl)benzeneacetonitrile, 2,3-dihydroxybutanedioic acid salt] |  |  |  | vascular resistance in the brain (adult male SHR): 149 mm Hg min. g/ml |
| COc1ccc(C(C#N)(CCCN(C)CCc2cc(OC)c(OC)cc2/C=C/C(C)=O)C(C)C)cc1OC (stereo not drawn) [Example 7, α-[3-[[2-[4.5-dimethoxy-2-(3-oxo-1E-butenyl)phenyl]ethyl]methylamino]-propyl]-3,4-dimethoxy-α-(1-methylethyl)benzeneacetonitrile] |  | 15.5 | 7.9 |  |
